From the CheMixHub ionic liquid set

Assay: xn = mol fraction of the nth substance listed
Settings: for electrical conductivity: 293.2 K

CC[N+](CC)=C(N(C)C)N(C)C.O=S(=O)([N-]S(=O)(=O)C(F)(F)F)C(F)(F)F + CO
viscosity [mPa·s], 101 kPa
Settings | 293.15 K | 298.15 K | 303.15 K | 308.15 K | 313.15 K | 318.15 K | 323.15 K
x1 = 0.0003107 | 0.59 | 0.556 | 0.528 | 0.493 | 0.462 | 0.442 | 0.42
x1 = 0.0006532 | 0.597 | 0.56 | 0.532 | 0.497 | 0.466 | 0.445 | 0.423
x1 = 0.00159 | 0.604 | 0.568 | 0.538 | 0.503 | 0.471 | 0.45 | 0.427
x1 = 0.003264 | 0.619 | 0.58 | 0.55 | 0.514 | 0.481 | 0.459 | 0.435
x1 = 0.006358 | 0.646 | 0.605 | 0.573 | 0.535 | 0.5 | 0.477 | 0.452
x1 = 0.01246 | 0.702 | 0.656 | 0.617 | 0.576 | 0.538 | 0.514 | 0.488
x1 = 0.01888 | 0.766 | 0.715 | 0.672 | 0.627 | 0.585 | 0.554 | 0.525
x1 = 0.02468 | 0.822 | 0.767 | 0.715 | 0.667 | 0.622 | 0.59 | 0.558
x1 = 0.03071 | 0.893 | 0.828 | 0.774 | 0.718 | 0.67 | 0.631 | 0.596
x1 = 0.03685 | 0.963 | 0.891 | 0.827 | 0.77 | 0.719 | 0.675 | 0.636
x1 = 0.04275 | 1.048 | 0.966 | 0.894 | 0.83 | 0.773 | 0.724 | 0.68
x1 = 0.05163 | 1.152 | 1.06 | 0.979 | 0.907 | 0.844 | 0.788 | 0.739
x1 = 0.05988 | 1.267 | 1.162 | 1.07 | 0.989 | 0.918 | 0.856 | 0.801
x1 = 0.07419 | 1.484 | 1.356 | 1.244 | 1.146 | 1.06 | 0.985 | 0.919
x1 = 0.08753 | 1.71 | 1.56 | 1.429 | 1.313 | 1.21 | 1.119 | 1.04

101 kPa
Settings | electrical conductivity [S/m]
x1 = 0.0003107 | 0.0546
x1 = 0.0006532 | 0.102
x1 = 0.00159 | 0.205
x1 = 0.003264 | 0.334
x1 = 0.006358 | 0.564
x1 = 0.01246 | 0.89
x1 = 0.01888 | 1.17
x1 = 0.02468 | 1.31
x1 = 0.03071 | 1.47
x1 = 0.03685 | 1.59
x1 = 0.04275 | 1.67
x1 = 0.05163 | 1.78
x1 = 0.05988 | 1.83
x1 = 0.07419 | 1.89
x1 = 0.08753 | 1.9

CCOP(=O)([O-])OCC.CC[N+]1(C)CCCC1 + CCO
viscosity [mPa·s], 100 kPa
Settings | 293.15 K | 298.15 K | 303.15 K | 308.15 K | 313.15 K | 318.15 K | 323.15 K | 328.15 K | 333.15 K | 338.15 K
x1 = 0.1003 | 3.85 | 3.4 | 2.99 | 2.66 | 2.35 | 2.07 | 1.83 | 1.67 | 1.5 | 1.44
x1 = 0.2001 | 8.78 | 7.84 | 6.91 | 6.2 | 5.58 | 5.06 | 4.67 | 4.27 | 3.94 | 3.62
x1 = 0.3004 | 18.4 | 15.67 | 13.37 | 11.53 | 9.97 | 8.78 | 7.86 | 7.13 | 6.55 | 6.04
x1 = 0.4001 | 39.8 | 29.8 | 24.8 | 20.6 | 17.7 | 15.24 | 13.14 | 11.6 | 10.25 | 9.19
x1 = 0.4997 | 66.9 | 52.7 | 42.3 | 34.5 | 28.5 | 23.8 | 20.3 | 17.4 | 14.99 | 13.17
x1 = 0.6002 | 116.3 | 88.7 | 68.7 | 54.9 | 43.9 | 35.2 | 29.3 | 24.6 | 20.7 | 17.9
x1 = 0.7001 | 180 | 133.7 | 102.4 | 78.8 | 62.3 | 49.5 | 39.7 | 32.8 | 27 | 22.6
x1 = 0.8011 | 265 | 193 | 143.7 | 109.7 | 83 | 66.1 | 51.9 | 42.1 | 34.3 | 28.3
x1 = 0.8985 | 334 | 237 | 173 | 130.1 | 98.4 | 75.6 | 59.5 | 47.3 | 37.8 | 30.9
x1 = 1 | 441 | 307 | 220 | 164 | 121.4 | 92.7 | 73 | 56.2 | 44.4 | 36.3

CCC(C)O (stereo unspecified) + CCCCCC[n+]1ccn(C)c1.O=[N+]([O-])[O-]
100 kPa, x2 = 0
Settings | viscosity [mPa·s]
293.15 K | 3.67
298.15 K | 3.04
303.15 K | 2.54
308.15 K | 2.13
313.15 K | 1.8
318.15 K | 1.54
323.15 K | 1.33

NCCN1CCNCC1 + CC(=O)[O-].CCCC[n+]1ccn(C)c1 + O
viscosity [mPa·s], 101 kPa
Settings | 298.15 K | 303.15 K | 308.15 K | 313.15 K | 318.15 K | 323.15 K | 328.15 K | 333.15 K
x2 = 0.03479, x1 = 0.0177 | 3.7 | 3.32 | 3.04 | 2.97 | 2.6 | 2.31 | 2.16 | 1.97
x2 = 0.03897, x1 = 0.01333 | 3.73 | 3.62 | 3.32 | 2.99 | 2.61 | 2.41 | 2.31 | 2.11
x2 = 0.04311, x1 = 0.00893 | 3.76 | 3.66 | 3.32 | 3.02 | 2.64 | 2.48 | 2.34 | 2.21

CCCn1cc[n+](C)c1C.F[B-](F)(F)F + O
101 kPa
Settings | viscosity [mPa·s]
298.15 K, x2 = 0.1932 | 134.9
303.15 K, x2 = 0.1932 | 103.3
303.15 K, x2 = 0.3944 | 40.4
303.15 K, x2 = 0.4987 | 25.5
308.15 K, x2 = 0.2833 | 53.2
308.15 K, x2 = 0.3944 | 32.95
308.15 K, x2 = 0.5995 | 13.58
318.15 K, x2 = 0.0939 | 78.6
318.15 K, x2 = 0.1932 | 52.1
333.15 K, x2 = 0.0939 | 42.5
333.15 K, x2 = 0.5995 | 6.65
333.15 K, x2 = 0.6985 | 4.37
343.15 K, x2 = 0.0939 | 29.96

c1c[nH]cn1 + CCCCCC[N+]1(C)CCCC1.O=S(=O)([N-]S(=O)(=O)C(F)(F)F)C(F)(F)F
101.33 kPa, x2 = 0.5
Settings | viscosity [mPa·s]
343.15 K | 11
353.15 K | 8
